US10035806B2, “Derivatized corroles and metallocorroles and their use as imaging and therapeutic agents” (CALIFORNIA INSTITUTE OF TECHNOLOGY, priority 2015, dated 2018)

Tests used:
Test in all cases: NCI60 anticancer drug screen
Assay type in all cases: cell-based, human
[1] = tested on: NCI-H226; details: NCI-H226 (Non-small-cell lung cancer), 10 μM, 48 h
From the text: (§1) The aminocaproate-substituted corrole Complex 3 was submitted to NCI for cytotoxic screening at a single high dose (10−5M) in a panel of 60 human tumor cell lines (NCI60). Details of the cytotoxicity assessment in the NCI anticancer drug screen have been described previously, in Monks A, et al. (1991) Feasibility of a high-flux anticancer drug screen using a diverse panel of cultured human tumor cell lines. J Natl Cancer Inst 83(11):757-766, this reference being incorporated by reference for these teachings.
(§2) In view of the promising results observed for carboxylated corroles, Complex 3 was selected for expanded cell screening to uncover additional susceptible cancer cell lines. The cytotoxic activity of Complex 3 was tested at a dose of 10^−5 M against 60 human cancer cell lines representing nine distinct tumor types in the anticancer screening program of the National Cancer Institute (NCI). The in vitro parameters for cytotoxicity, growth percent, and lethality were obtained for Complex 3 and reported as a mean graph of the percent growth of treated cells (FIG. 7). Bars in the mean graph depict the deviation of individual tumor cell lines from the overall mean value for all cells tested. Bars that project to the right of the mean represent cell lines that are more sensitive to Complex 3, whereas cell lines less sensitive to the compound display bars that project to the left.
(§3) The numerical values associated with this assay represent growth relative to the no-drug control and the numbers of cells at time 0 (FIG. 7). This allows detection of both growth inhibition (values between 0 and 100) and lethality (values less than 0). For example, a value of 100 signifies no growth inhibition, 40 means 60% growth inhibition, 0 means no net growth over the course of the experiment, −40 means 40% lethality, and −100 indicates all cells are dead. […] Growth inhibitions reflect cytostatic activity of the compound as previously shown for Complex 2. In contrast, cell lethality is only evident in melanoma cells, specifically the LOX IMVI and SK-MEL-28 cell lines.

[2] = tested on: A498; details: A498 (Renal Cancer), 10 μM, 48 h
From the text: as §1, §2, §3

[3] = tested on: BT-549; details: BT-549 (Breast Cancer), 10 μM, 48 h
From the text: as §1, §2, §3

[4] = tested on: OVCAR-3; details: OVCAR-3 (Ovarian Cancer), 10 μM, 48 h
From the text: as §1, §2, §3

[5] = tested on: MALME-3M; details: MALME-3M (Melanoma), 10 μM, 48 h
From the text: as §1, §2, §3

[6] = tested on: HT29; details: HT29 (Colon cancer), 10 μM, 48 h
From the text: as §1, §2, §3

[7] = tested on: SF-268; details: SF-268 (CNS Cancer), 10 μM, 48 h
From the text: as §1, §2, §3

[8] = tested on: HCT-116; details: HCT-116 (Colon cancer), 10 μM, 48 h
From the text: as §1, §2, §3

[9] = tested on: SNB-75; details: SNB-75 (CNS Cancer), 10 μM, 48 h
From the text: as §1, §2, §3

[10] = tested on: U251; details: U251 (CNS Cancer), 10 μM, 48 h
From the text: as §1, §2, §3

[11] = tested on: SF-539; details: SF-539 (CNS Cancer), 10 μM, 48 h
From the text: as §1, §2, §3

[12] = tested on: SK-MEL-2; details: SK-MEL-2 (Melanoma), 10 μM, 48 h
From the text: as §1, §2, §3

[13] = tested on: UACC-62; details: UACC-62 (Melanoma), 10 μM, 48 h
From the text: as §1, §2, §3

[14] = tested on: SK-OV-3; details: SK-OV-3 (Ovarian Cancer), 10 μM, 48 h
From the text: as §1, §2, §3

[15] = tested on: RPMI-8226; details: RPMI-8226 (Leukemia), 10 μM, 48 h
From the text: as §1, §2, §3

[16] = tested on: NCI-H460; details: NCI-H460 (Non-small-cell lung cancer), 10 μM, 48 h
From the text: as §1, §2, §3

[17] = tested on: MDA-MB-231/ATCC; details: MDA-MB-231/ATCC (Breast Cancer), 10 μM, 48 h
From the text: as §1, §2, §3

[18] = tested on: HCT-15; details: HCT-15 (Colon cancer), 10 μM, 48 h
From the text: as §1, §2, §3

[19] = tested on: HOP-62; details: HOP-62 (Non-small-cell lung cancer), 10 μM, 48 h
From the text: as §1, §2, §3

[20] = tested on: EKVX; details: EKVX (Non-small-cell lung cancer), 10 μM, 48 h
From the text: as §1, §2, §3

[21] = tested on: ACHN; details: ACHN (Renal Cancer), 10 μM, 48 h
From the text: as §1, §2, §3

[22] = tested on: SW-620; details: SW-620 (Colon cancer), 10 μM, 48 h
From the text: as §1, §2, §3

[23] = tested on: UO-31; details: UO-31 (Renal Cancer), 10 μM, 48 h
From the text: as §1, §2, §3

[24] = tested on: HCC-2998; details: HCC-2998 (Colon cancer), 10 μM, 48 h
From the text: as §1, §2, §3

[25] = tested on: MDA-MB-468; details: MDA-MB-468 (Breast Cancer), 10 μM, 48 h
From the text: as §1, §2, §3

[26] = tested on: DU-145; details: DU-145 (Prostate Cancer), 10 μM, 48 h
From the text: as §1, §2, §3

[27] = tested on: OVCAR-8; details: OVCAR-8 (Ovarian Cancer), 10 μM, 48 h
From the text: as §1, §2, §3

[28] = tested on: UACC-257; details: UACC-257 (Melanoma), 10 μM, 48 h
From the text: as §1, §2, §3

Structure (SMILES): O=C(O)CCCCCNc1c(F)c(F)c(C2=C3C=CC4=[N+]3[Ga-]35[n]6c2ccc6C(c2c(F)c(F)c(F)c(F)c2F)=c2ccc([n]23)=C(c2c(F)c(F)c(F)c(F)c2F)c2ccc4[n]25)c(F)c1F (stereo not shown) [Complex 3]
- Growth inhibition, % [1]: 61.1%
- Growth inhibition, % [2]: 99.0%
- Growth inhibition, % [3]: 73.0%
- Growth inhibition, % [4]: 75.9%
- Growth inhibition, % [5]: 50.4%
- Growth inhibition, % [6]: 60.6%
- Growth inhibition, % [7]: 65.8%
- Growth inhibition, % [8]: 75.5%
- Growth inhibition, % [9]: 30.7%
- Growth inhibition, % [10]: 77.4%
- Growth inhibition, % [11]: 85.3%
- Growth inhibition, % [12]: 64.1%
- Growth inhibition, % [13]: 91.6%
- Growth inhibition, % [14]: 32.9%
- Growth inhibition, % [15]: 70.2%
- Growth inhibition, % [16]: 94.2%
- Growth inhibition, % [17]: 72.5%
- Growth inhibition, % [18]: 57.0%
- Growth inhibition, % [19]: 44.9%
- Growth inhibition, % [20]: 59.7%
- Growth inhibition, % [21]: 73.2%
- Growth inhibition, % [22]: 75.9%
- Growth inhibition, % [23]: 64.7%
- Growth inhibition, % [24]: 60.1%
- Growth inhibition, % [25]: 86.3%
- Growth inhibition, % [26]: 64.7%
- Growth inhibition, % [27]: 67.3%
- Growth inhibition, % [28]: 37.2%
